One experiment deals with NCI-AR. The experiment is described as follows: MTT cytotoxicity assay (% kill), NCI-AR. It counts as cell-based, human. The conditions noted are these: 1 h exposure. As for the experimental part: (§1) The following human tumor cell lines were obtained and cultured in sextuplicate microwells at 37° C. and 5% CO2 in humidified air and in 10% FBS in Eagles MEM: SK—N—FI, SK—N-AS, LS-174T, WiDr, HuTu-80, MCF7, NCI-AR, MES-Sar, and PL-45. Cells from each cell line were separately treated with an amount of one of the compounds of Formula I, II, or III (see Table 1). Cells were exposed to each compound (0.1 μg/mL or 1.0 μg/mL) for one hour or 24 hours, rinsed with drug-free media, and incubated for an additional five days. The number of viable cells after five days was measured using an MTT (3-(4,5-dimethylthiazol-2-yl)-2,5-diphenyltetrazolium bromide) assay (see, e.g., Mosmann, J. Immunol. Methods, 65(1-2), 55-63 (1983)).
(§2) The cytotoxicity of each drug was determined and expressed as the percent of cells killed (“% kill”).
A general note: Formazan colour is commonly taken as a measure of viable cells.

In a further experiment the test system is LS-174T. The experiment is described as follows: MTT cytotoxicity assay (% kill), LS-174T. The format is cell-based, human. The conditions noted are these: 1 h exposure, MTT after five days. As for the experimental part: as §1, §2
The subject of experiment [1] is Colon 38 (murine colon adenocarcinoma). Put plainly: Disk diffusion assay, zone of inhibition, Colon 38; zone differentials, potency and product. It counts as cell-based. On the set-up: key to C38ΔL1210 / C38ΔCFU: difference of zone of inhibition values, in zone units. The procedure, abridged: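 Dissociated Colon 38 cells were plated in soft agar over a hard agar layer; 15 µl of compound dilution dried on a 6.5 mm disk was placed on the plate, and incubation ran 7–10 days. Inhibition zone was measured from disk edge to normal colonies, with the disk diameter = 200 units. Potency = dilution giving 500 units; the product multiplies it by the differentials against L1210 or CFU-GM.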
(A growth-free zone around the sample is the usual read-out of agar diffusion tests.)

The subject of the next experiment is WiDr. Put plainly: MTT cytotoxicity assay (% kill), WiDr. It counts as cell-based, human. Conditions: 1 h exposure. As for the experimental part: as §1, §2
Another experiment relates to SK-N-AS. The experiment is described as follows: MTT cytotoxicity assay (% kill), SK-N-AS. The format is cell-based, human. Conditions: MTT after five days. The protocol: as §1, §2
The subject of the next experiment is MES-Sar. The experiment is described as follows: MTT cytotoxicity assay (% kill), MES-Sar. The format is cell-based, human. Conditions: 1 h exposure. The protocol: as §1, §2

Structures are written as SMILES.

This note sets out measurements from patent publication US20060281807A1, “Quassinoid compositions for the treatment of cancer and other proliferative diseases” (Tapestry Pharmaceuticals, Inc., priority 2005, published 2006).

For `CCC(O)(CC(=O)OC1C(=O)OC2CC3C(C)=C(O)C(=O)CC3(C)C3C(O)C(O)C4(C(=O)OC)OCC23C14)C(C)C` (mixture of isomers) [(+/−)-15-O-(3′-ethyl-3′-hydroxy-4′-methyl)-bruceolide], the “% kill, NCI-AR” value in the experiment with NCI-AR (0.1 μg/mL) and with NCI-AR (1.0 μg/mL) was 0% in each case. Moreover, the “% Kill, LS-174T” value in the experiment on LS-174T (0.1 μg/mL) and in the experiment on LS-174T (1.0 μg/mL) was 0% each time. Further, the Sum in experiment [1] (C38ΔL1210 plus C38ΔCFU) is 1150. The C38ΔL1210 in experiment [1] (difference between zone of inhibition values, Colon38 vs L1210 leukemia) was 600. Moreover, the C38ΔCFU in experiment [1] (difference between zone of inhibition values, Colon38 vs normal cell CFU-GM) was 550. In experiment [1] (potency multiplied by zone differentials), this molecule returned a Product of 3450. Moreover, the “% kill, WiDr” value in the experiment with WiDr (0.1 μg/mL) and in the experiment with WiDr (1.0 μg/mL) was 0% each time. Also, the “% Kill, SK-N-AS” value is recorded as 0% in the experiment with SK-N-AS (0.1 μg/mL, 1 h exposure); 0% in the experiment with SK-N-AS (0.1 μg/mL, 24 h exposure); 0% in the experiment on SK-N-AS (1.0 μg/mL, 1 h exposure); 0% in the experiment with SK-N-AS (1.0 μg/mL, 24 h exposure). Moreover, the “% kill, MES Sar” value with MES-Sar (0.1 μg/mL) and with MES-Sar (1.0 μg/mL) was 0% in each case.
